For one assay, the system named is Classical Pathway. The assay is described as follows: Inhibition of Classical pathway-mediated lysis of antibody-sensitized sheep erythrocytes in normal human serum. It is filed as biochemical. How it is done: To determine whether the interaction of C2 with ShTORE-ed-1 could affect the normal interaction of C2 with other complement proteins and thereby inhibit complement activation, the effect of the TORE-ed-1 peptide on complement activation was assessed. The ability of the TORE-ed-1 peptide to inhibit the lysis of antibody-sensitized sheep erythrocytes, in the presence of normal human serum, NHS (and therefore in the presence of complement proteins C1 through to […]), in a dose-dependent manner, was used as a measure of its ability to inhibit the Classical Pathway. The extent of haemolysis was determined by spectrophotometric measurement of haemoglobin release at 412 nm. An IC60 value of approximately 10 μM was found (FIG. 11A and B).
(§1) FIG. 11(A) and (B) Effect of increasing TORE-ed1 peptide on the complement-mediated lysis of sensitized sheep red blood cells in the presence of normal human serum as a source of complement. FIG. 11(C) and (D) Effect of increasing TORE-ed1 peptide preincubated with C2 on haemolysis in the presence of human serum in which C2 is limiting. FIG. 11(E) effect of various Tore peptides and Tore related C4b-derived peptides on complement mediated lysis.

A short description of assay [1]: Immune complex inflammation in mouse ear (human albumin i.v., anti-HA s.c.). Type of assay: in vivo, Mice. The method, then:
FIG. 22: Mice (7 or 8 per group) injected with human albumin (HA) 10 mg/kg i.v. (200 μl of a solution 1 mg/ml in Evans blue1%). After 5 min anti-HA injected s.c. in situ (in ear). Test compounds then injected and after 4 h evaluations made for reduction of inflammation. Oedema was evaluated by weight. Plasma extravasation as measure of microvascular permeability or haemorrage was measured by extraction of extravasated Evan's blue dye with formamide from injected ears. As well as subcutaneous (s.c.) administration of H17 (the test compound of formula HEVKIKHFSPY at two concentrations), it was also given intravenously (0.1 mg/kg). The positive control for reduction in inflammation in this experiment was cromolyn.

The target in assay [2] is T1, human complement C2 (Homo sapiens, UniProt P06681).
T1 sequence (P06681 21-752): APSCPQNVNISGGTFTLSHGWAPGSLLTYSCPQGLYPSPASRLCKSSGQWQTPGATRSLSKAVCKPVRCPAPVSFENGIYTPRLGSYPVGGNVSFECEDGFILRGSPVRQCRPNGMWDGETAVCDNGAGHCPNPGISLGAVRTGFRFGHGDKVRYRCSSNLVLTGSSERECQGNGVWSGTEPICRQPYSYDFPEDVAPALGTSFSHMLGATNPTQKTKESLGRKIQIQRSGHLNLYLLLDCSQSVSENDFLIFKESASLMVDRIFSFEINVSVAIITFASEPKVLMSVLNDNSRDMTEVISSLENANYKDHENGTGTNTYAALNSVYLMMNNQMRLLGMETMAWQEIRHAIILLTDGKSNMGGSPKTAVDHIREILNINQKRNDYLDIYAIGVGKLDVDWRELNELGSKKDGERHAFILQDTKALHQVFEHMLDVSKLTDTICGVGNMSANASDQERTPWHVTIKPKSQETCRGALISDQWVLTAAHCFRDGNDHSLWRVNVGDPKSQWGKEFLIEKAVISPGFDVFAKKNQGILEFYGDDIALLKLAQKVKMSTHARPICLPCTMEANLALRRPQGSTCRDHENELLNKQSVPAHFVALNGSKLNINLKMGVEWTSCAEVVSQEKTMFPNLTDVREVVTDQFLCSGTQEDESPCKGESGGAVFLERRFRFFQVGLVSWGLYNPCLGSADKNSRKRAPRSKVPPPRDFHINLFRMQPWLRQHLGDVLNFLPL
The assay is described as follows: Haemolysis with C2-deficient human serum reconstituted with C2, peptide preincubated with C2. Type of assay: biochemical. As to conditions: peptide preincubated with C2 before addition to C2-depleted serum. How it is done:
As an additional confirmation that TORE-ed-1 specifically binds to human complement C2, C2-deficient human serum with enough C2 added to reconstitute haemolytic activity, was used in the same assay.
as §1

In assay [3] the target is T1, human complement C2. The assay is described as follows: Receptor affinity chromatography with immobilised ed-1 peptide. Type of assay: binding. Further details: One litre of serum-free medium which had maintained the cells; endogenous in cells; host or cells: THP-1 (human macrophage-like cells), conditioned serum-free medium. The source says: In order to identify a likely ligand, the putative ligand-binding domain of ShTORE, extracellular domain 1 (ed-1), was used in receptor affinity chromatography. It was assumed that the cells expressing the receptor themselves produced the ligand in an “autocrine” manner. The cells chosen were the macrophage-like (human) THP-1 cells. These were adapted to grow in conditioned, serum-free medium in order to increase the chances of finding the ligand for TORE. One litre of serum-free medium which had maintained the cells, and as a control one litre of serum-free medium without cells, was passed through identical epoxy-activated Sepharose 6B columns with the 27-mer ShTORE-ed-1 peptide attached. Fractions were collected from a low pH elution and 20 μl aliquots run on SDS-PAGE. An 83 kDa protein band was identified (FIG. 10A, lane 1). The fraction was concentrated, transferred to problot and stained with Coomassie Brilliant blue. The band was then excised and the N-terminal sequence determined. The resulting six residues indicated the protein to be human complement protein C2. The fully glycosylated version of C2, however should have been 102 kDa.

Regarding “FEVKITPGKPY [C4b β chain derived peptide]”, the “complement inhibition in vitro” value in the assay on Classical Pathway is given as “shown to inhibit complement in vitro”.
For the substance “HEVKIKHFSPY (shistosoma haematobium) [H17]”, the “complement inhibition in vitro” value in the assay on Classical Pathway is listed as “capable of effective complement inhibition in vitro”. Further, in assay [1] (1 μg dose, 4 h), the “reduction of haemorrage (Evans blue extravasation)” value stood at 30% and the “reduction of oedema (by weight)” value was 28%.
As to “HEVKIKSPY [TOR-ed1 peptide; probably a misprint of …]”, the “inflammation mediated by immune complexes and Classical pathway complement (Type III hypersensitivity)” value in assay [1] (in vivo) is “reduce inflammation”.
Take “NH2-Met-Ser-Pro-Ser-Leu-Val-Ser-Asp-Thr-Gln-Lys-His-Glu-Arg-Gly-Ser-His-Glu-Val-Lys-Ile-Lys-His-Phe-Ser-Pro-Tyr-CO2H (H-MSPSLVSDTQKHERGSHEVKIKHFSPY-OH) [TORE-ed-1 peptide, 27-mer peptide of extracellular domain 1 of ShTORE]”: the “inhibition of haemolytic activity” value with human complement C2 [2] is “inhibit haemolytic activity”. The “interaction with C2” value with human complement C2 [3] was “interact with human complement protein C2”. In addition, the “complement inhibition in vitro” value in the assay on Classical Pathway is “inhibit complement action in vitro”. Moreover, the “concentration able to inhibit the haemolytic activity of C2 from the Classical pathway” value in the assay on Classical Pathway (normal human serum) was determined as 10 µM. In addition, the “IC60, inhibition of lysis of antibody-sensitized sheep erythrocytes” value with Classical Pathway (normal human serum, haemoglobin release at 412 nm) was “approximately 10 μM”.
As for “SSTSDIRLVIHTKTGPIYIKST (shistosoma haematobium) [SEQ ID NO 2]”, in the assay on Classical Pathway, the “complement inhibition in vitro” value was “inhibit complement action in vitro”.
